Laboratory results published in US20080213250A1, “Use of Eph Receptor Inhibitors for the Treatment of Neurodegenerative Diseases” (priority 2004, published 2008).

What was measured:
Experiment in all cases: Chemical proteomics pull-down with immobilized compound, LC-MS/MS identification
Settings in all cases: maximum in any chemical proteomics experiment
EphA4 = EphA4 (Mus musculus, UniProt Q03137)
EphA5 = EphA5 (Mus musculus, UniProt Q60629)
EphA7 = EphA7 (Mus musculus, UniProt Q61772)
EphB2 = biological target: T1, EphB2 (Mus musculus, UniProt P54763)
T1 sequence (P54763 19-986): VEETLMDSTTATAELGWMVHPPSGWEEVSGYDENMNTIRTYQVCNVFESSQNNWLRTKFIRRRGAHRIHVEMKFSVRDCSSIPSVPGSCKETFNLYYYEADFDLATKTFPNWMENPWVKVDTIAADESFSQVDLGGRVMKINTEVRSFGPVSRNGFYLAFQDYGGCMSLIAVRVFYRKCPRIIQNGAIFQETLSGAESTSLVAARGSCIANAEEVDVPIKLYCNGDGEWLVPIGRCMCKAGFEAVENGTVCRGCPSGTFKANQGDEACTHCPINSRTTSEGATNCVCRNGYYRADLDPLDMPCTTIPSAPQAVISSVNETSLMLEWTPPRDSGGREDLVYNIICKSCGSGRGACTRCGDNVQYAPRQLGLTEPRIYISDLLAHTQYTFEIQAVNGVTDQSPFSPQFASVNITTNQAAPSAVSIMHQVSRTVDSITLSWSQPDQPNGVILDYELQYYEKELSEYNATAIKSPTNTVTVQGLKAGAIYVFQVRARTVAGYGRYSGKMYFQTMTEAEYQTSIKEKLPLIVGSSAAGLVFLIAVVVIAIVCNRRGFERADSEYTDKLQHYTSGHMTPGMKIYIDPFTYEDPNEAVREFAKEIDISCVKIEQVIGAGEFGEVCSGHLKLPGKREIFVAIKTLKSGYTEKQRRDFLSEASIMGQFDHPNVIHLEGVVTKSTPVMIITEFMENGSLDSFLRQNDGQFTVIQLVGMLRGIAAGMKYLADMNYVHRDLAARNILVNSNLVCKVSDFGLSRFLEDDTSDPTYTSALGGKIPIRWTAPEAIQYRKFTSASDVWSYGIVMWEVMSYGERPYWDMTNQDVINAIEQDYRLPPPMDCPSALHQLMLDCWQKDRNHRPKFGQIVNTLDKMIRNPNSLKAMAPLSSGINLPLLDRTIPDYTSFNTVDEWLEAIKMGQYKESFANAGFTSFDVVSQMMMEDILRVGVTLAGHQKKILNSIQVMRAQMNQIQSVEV

EphB4 = biological target: T2, EphB4 (Mus musculus, UniProt P54761)
T2 sequence (P54761 16-987): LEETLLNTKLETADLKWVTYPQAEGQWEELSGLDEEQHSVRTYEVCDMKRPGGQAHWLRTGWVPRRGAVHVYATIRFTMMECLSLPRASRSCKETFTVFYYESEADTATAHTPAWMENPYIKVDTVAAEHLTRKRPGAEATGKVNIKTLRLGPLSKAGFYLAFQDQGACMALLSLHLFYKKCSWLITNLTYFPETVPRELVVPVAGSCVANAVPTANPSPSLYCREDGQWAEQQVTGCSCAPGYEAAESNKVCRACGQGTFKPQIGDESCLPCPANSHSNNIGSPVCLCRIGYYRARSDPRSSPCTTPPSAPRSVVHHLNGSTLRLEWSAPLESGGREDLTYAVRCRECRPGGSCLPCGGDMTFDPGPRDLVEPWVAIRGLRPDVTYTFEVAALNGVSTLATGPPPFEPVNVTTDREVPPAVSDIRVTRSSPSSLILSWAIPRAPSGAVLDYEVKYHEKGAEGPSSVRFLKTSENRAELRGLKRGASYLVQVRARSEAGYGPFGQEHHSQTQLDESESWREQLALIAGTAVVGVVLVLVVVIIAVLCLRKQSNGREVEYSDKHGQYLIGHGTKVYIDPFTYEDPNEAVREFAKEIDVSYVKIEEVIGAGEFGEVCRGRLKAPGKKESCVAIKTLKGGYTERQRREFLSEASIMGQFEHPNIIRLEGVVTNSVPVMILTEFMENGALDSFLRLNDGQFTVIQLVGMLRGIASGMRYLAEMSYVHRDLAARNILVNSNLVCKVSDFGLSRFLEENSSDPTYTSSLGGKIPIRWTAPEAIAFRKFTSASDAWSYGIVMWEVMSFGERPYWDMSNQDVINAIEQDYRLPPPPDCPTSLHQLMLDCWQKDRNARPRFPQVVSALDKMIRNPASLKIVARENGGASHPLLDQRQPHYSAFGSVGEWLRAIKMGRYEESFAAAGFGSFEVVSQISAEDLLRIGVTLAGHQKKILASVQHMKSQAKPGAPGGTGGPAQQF

Sequence of EphA7 (Q61772 28-998): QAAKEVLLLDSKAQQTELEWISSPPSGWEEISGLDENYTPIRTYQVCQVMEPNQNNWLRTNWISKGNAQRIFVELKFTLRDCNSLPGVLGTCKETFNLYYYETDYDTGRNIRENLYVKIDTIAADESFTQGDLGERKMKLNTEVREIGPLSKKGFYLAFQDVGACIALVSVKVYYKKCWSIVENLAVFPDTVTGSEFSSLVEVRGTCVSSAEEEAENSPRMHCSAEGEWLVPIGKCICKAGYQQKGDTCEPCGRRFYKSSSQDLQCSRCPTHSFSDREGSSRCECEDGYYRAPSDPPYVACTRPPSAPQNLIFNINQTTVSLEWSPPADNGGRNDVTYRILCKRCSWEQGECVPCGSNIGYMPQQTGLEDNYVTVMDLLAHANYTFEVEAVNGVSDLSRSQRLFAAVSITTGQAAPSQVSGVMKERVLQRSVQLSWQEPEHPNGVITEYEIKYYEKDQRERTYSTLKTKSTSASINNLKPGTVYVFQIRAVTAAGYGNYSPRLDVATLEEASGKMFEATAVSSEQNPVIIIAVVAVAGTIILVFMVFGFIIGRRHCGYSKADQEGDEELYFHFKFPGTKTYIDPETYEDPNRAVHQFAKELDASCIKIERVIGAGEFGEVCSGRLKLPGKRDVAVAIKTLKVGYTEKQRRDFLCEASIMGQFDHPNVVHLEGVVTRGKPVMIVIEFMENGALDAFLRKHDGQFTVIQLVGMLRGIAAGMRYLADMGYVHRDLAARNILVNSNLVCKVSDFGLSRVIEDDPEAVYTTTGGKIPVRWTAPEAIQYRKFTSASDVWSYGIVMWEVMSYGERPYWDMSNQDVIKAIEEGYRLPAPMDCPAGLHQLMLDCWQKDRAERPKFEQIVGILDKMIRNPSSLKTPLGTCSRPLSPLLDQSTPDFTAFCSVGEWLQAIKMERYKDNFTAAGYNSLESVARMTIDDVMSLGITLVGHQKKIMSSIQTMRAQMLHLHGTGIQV
Sequence of EphA5 (Q60629 27-876): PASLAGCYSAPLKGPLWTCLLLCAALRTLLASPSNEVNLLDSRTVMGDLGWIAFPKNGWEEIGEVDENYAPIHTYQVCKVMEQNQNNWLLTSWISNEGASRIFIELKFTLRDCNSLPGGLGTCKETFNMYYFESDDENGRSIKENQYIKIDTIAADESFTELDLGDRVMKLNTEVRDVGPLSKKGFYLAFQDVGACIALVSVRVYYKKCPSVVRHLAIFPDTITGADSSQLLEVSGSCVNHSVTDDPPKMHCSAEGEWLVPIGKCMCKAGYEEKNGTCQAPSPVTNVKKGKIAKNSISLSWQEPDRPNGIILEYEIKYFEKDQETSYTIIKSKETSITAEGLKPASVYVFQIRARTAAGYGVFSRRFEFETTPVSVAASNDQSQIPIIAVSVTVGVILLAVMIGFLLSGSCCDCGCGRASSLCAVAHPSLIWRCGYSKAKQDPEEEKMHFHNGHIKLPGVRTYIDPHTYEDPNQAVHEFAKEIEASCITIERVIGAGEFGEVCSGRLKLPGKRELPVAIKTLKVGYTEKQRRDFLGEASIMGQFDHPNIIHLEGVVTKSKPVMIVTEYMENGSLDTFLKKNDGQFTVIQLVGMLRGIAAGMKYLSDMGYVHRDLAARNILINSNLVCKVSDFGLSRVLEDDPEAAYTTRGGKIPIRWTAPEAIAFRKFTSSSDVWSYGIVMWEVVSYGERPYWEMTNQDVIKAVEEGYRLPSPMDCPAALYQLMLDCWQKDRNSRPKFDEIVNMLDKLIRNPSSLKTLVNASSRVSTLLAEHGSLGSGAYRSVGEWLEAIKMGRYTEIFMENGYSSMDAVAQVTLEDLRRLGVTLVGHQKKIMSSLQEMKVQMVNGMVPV
Sequence of EphA4 (Q03137 20-986): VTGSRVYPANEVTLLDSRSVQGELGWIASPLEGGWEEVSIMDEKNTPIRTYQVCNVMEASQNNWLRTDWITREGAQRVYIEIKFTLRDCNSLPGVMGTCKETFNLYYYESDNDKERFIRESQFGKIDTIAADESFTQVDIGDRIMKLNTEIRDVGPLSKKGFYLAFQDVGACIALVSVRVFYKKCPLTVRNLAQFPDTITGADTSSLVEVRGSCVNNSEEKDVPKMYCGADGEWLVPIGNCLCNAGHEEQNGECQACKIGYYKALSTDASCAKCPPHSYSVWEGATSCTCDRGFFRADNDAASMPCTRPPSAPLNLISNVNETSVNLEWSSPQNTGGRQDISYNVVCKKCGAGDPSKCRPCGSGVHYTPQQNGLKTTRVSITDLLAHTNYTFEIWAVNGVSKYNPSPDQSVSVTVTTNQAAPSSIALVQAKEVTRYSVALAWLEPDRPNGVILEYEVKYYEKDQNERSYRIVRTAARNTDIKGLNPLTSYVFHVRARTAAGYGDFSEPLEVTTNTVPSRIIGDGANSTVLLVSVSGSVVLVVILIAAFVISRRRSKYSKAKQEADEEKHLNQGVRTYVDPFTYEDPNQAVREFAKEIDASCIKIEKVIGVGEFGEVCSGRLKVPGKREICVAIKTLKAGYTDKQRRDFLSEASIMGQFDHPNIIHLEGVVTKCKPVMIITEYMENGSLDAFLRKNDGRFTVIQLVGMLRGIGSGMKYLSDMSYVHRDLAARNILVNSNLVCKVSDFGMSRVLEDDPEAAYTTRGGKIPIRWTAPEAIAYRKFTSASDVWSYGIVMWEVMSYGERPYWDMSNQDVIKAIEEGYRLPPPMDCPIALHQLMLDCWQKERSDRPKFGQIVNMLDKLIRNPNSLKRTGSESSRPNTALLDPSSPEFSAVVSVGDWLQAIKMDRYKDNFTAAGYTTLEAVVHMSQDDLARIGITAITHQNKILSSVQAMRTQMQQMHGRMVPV

maximal number of non-redundant peptides identified, EphA4 (EphA4) | maximal number of non-redundant peptides identified, EphA5 (EphA5) | maximal number of non-redundant peptides identified, EphA7 (EphA7) | maximal number of non-redundant peptides identified, EphB2 (EphB2) | maximal number of non-redundant peptides identified, EphB4 (EphB4) | Structure (SMILES)
14 | 5 | 4 | 23 | 46 | CC(C)[C@H](CO)Nc1nc(Nc2ccc(C(=O)O)c(Cl)c2)c2ncn(C(C)C)c2n1 [Purvalanol B]
47 | 4 | 7 | 35 | 17 | CSc1cccc(Nc2ncc3cc(-c4c(Cl)cccc4Cl)c(=O)n(C)c3n2)c1 [PD173955]
